Reference: PubChem BioAssay (NCI)
Several values for one entry are separate records, joined by “and”; a condition that tells them apart may be missing. Equal values may be shown once.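 Each compound was tested at five concentrations against cells in 96-well plates for 48 hours. The concentration for 50% growth inhibition is given as GI50. TGI denotes the concentration required for complete inhibition of growth.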 Where a SMILES comes first, the peptide text is derived from it. Bridges are numbered along the chain shown (N, C = ends).

Tests used:
Test in all cases: NCI-60 cell line screen, 48 h
[1] = test system: MDA-N
[2] = test system: T-47D breast
[3] = test system: DMS 114 small cell lung
[4] = test system: XF 498 CNS
[5] = test system: KM20L2 colon
[6] = test system: LXFL 529 NSCLC
[7] = test system: DMS 273 small cell lung
[8] = test system: HOP-18 NSCLC

| Structure (SMILES) | TGI [2] [µM] | GI50 [2] | also measured |
| --- | --- | --- | --- |
| CCc1nc(N)nc(N)c1-c1ccc(N(C)Cc2ccccc2)c([N+](=O)[O-])c1 | 21.4 | – | TGI [1]: 19.1 µM |
| O=c1oc2ccc(I)cc2c(=O)n1-c1ccc(I)cc1F | 3.49 | 0.298 µM | – |
| COc1cc2c(cc1OC)-c1c(c3ccc([N+](=O)[O-])cc3c(=O)n1CCCN=[N+]=[N-])C2=O | > 100 | > 100 µM | – |
| COc1ccc2c(c1)C(=O)/C(=C/c1cccc(OCC(=O)c3ccc([N+](=O)[O-])cc3)c1)CO2 | 4.54 | 1.65 µM | – |
| CC1OC(OC2C(O)C(OCCc3ccc(O)c(O)c3)OC(CO)C2OC(=O)/C=C/c2ccc(O)c(O)c2)C(O)C(O)C1O (stereo not given) | > 100 | > 100 µM | – |
| Nc1nc(N)c(CCCCc2ccccc2)c(/C=C/c2ccc([N+](=O)[O-])cc2)n1 | – | – | TGI [3]: 4.29 µM; TGI [4]: 3.74 µM; TGI [5]: 20.6 µM |
| N#Cc1ccc(O)c(C2=NCC(c3ccc(-c4ccccc4)cc3)O2)c1 (stereo not given) | 24.1 | 0.565 µM | – |
| COc1ccccc1-c1ccc2c(N)c(C(=O)c3ccc4c(c3)OCO4)sc2n1 | 14.4 | 3.39 µM | – |
| CCC(C)C1NC(=O)C(CC(C)C)NC(=O)C(C(C)C)NC(=O)C2CSSCC(NC1=O)C(=O)N2 (stereo not given) (cyclo(CCVLI); disulfide 1-2; configuration not given here) | 0.182 | – | TGI [1]: 0.339 µM |
| O=c1oc2c(O)c(O)cc3c(=O)oc4c(O)c(O)cc1c4c23 | – | – | TGI [3]: > 100 µM; TGI [4]: > 100 µM; TGI [6]: > 100 µM; GI50 [7]: > 100 µM; TGI [7]: > 100 µM; TGI [5]: > 100 µM |
| C#Cc1cccc(Nc2ncnc3ccc(-c4cnc(N)nc4)cc23)c1 | 4.62 | 0.664 µM | – |
| Fc1ccc(-c2c(-c3ccncc3)[nH]c3cccnc23)cc1 | > 25 | 13.4 µM | – |
| CC(Oc1ccc2c(=O)cc(-c3ccccc3)oc2c1)C(=O)O (stereo not given) | – | – | TGI [3]: > 100 µM; TGI [4]: > 100 µM; TGI [8]: > 100 µM; TGI [6]: > 100 µM; TGI [5]: > 100 µM |
| COc1ccc(C(=O)/C=C/c2c(C(F)(F)F)nc3ccccn23)cc1OC | 6.21 | 1.78 µM | – |
| Cl.[O-]c1cccc2cccnc12.[O-]c1cccc2cccnc12.[O-]c1cccc2cccnc12.[O-]c1cccc2cccnc12.[Ti+4] | – | – | TGI [3]: 0.365 µM; TGI [8]: > 100 µM; TGI [7]: 1.69 µM; TGI [5]: > 76 µM |
| Oc1ccccc1/C=N\Nc1ccccc1 | > 100 | 3.43 µM | – |

| Structure (SMILES) | TGI [2] [µM] | GI50 [2] | also measured |
| --- | --- | --- | --- |
| Cc1cc(C(=O)CC(Cl)=C(Cl)Cl)c(Cl)cc1Cl | 44.2 | 19.9 µM | – |
| CN1CCN(C(=O)[C@@]2(C)CC[C@]3(C)CC[C@]4(C)C(=CC[C@@H]5[C@@]6(C)CC[C@H](OC(=O)c7cccnc7)C(C)(C)[C@@H]6CC[C@]54C)[C@@H]3C2)CC1 | 17 | 3.12 µM | – |
| O=C(C(=O)c1cccnc1)c1cccnc1 | > 100 | > 100 µM | – |
| CC(C)c1ccc(C(c2c(O)c3ccccc3oc2=O)c2c(O)c3ccccc3oc2=O)cc1 | > 100 | – | TGI [1]: 46.8 µM |
| COC(=O)c1cc2c([nH]c3ccccc32)c(-c2nc3ccccc3cc2CO)n1 | > 100 | > 100 µM | – |
| COc1ccc(-c2nsc3c2NC(=O)CC3c2cccc(F)c2)cc1 (stereo not given) | > 100 | 4.81 µM | – |
| CN(C)c1ccc(/C=N/n2c(CCCCc3n[nH]c(=S)n3/N=C/c3ccc(N(C)C)cc3)n[nH]c2=S)cc1 | 17.3 | 0.022 µM | – |
| CC[C@@]1(O)C(=O)OCc2c1cc1n(c2=O)Cc2cc3cccc(N)c3nc2-1 | – | – | GI50 [4]: 27.3 µM; TGI [4]: 82.1 µM; GI50 [6]: > 100 µM; TGI [6]: > 100 µM; GI50 [7]: 1.78 µM; TGI [7]: 8.48 µM; GI50 [5]: 26.2 µM; TGI [5]: > 100 µM |
| NS(=O)(=O)c1ccc(-n2nc(-c3ccccc3)cc2-c2cc(O)ccc2O)cc1 | > 100 | > 100 µM | – |
| CN(CCCCCCCCNc1ccnc2ccccc12)Cc1ccc(-c2ccc(-c3ccc(C#N)cc3)s2)cc1 | 3.16 | 0.881 µM | – |
| COc1ccc(C2CC(c3ccc4ccccc4c3)=NN2c2nc(O)c(C3=c4cc(Cl)ccc4=NC3=O)s2)cc1 (stereo not given) | – | 0.0223 µM and < 0.005 µM | – |
| CC[C@H](C)[C@H](NC(=O)[C@H]1CCCCN1C)C(=O)N(C)[C@H](C[C@@H](OC(C)=O)c1nc(C(=O)NC23C4C5C2C2C3C4C52C(=O)OC)cs1)C(C)C (stereo not given in full) | – | 0.00275 µM | – |
| CCN(CC)CCOc1ccc(NC(=O)C(C(C)C)N2C(=O)/C(=C/c3ccc(Br)cc3)SC2=S)cc1 (stereo not given) | 19 | 3.63 µM | – |
| O=C(O)CC(S)C(=O)O.[Li+].[Sb] (stereo not given) | > 100 | > 100 µM | GI50 [1]: > 100 µM; TGI [1]: > 100 µM |
| COc1ccc(Cl)cc1Nc1nc(C(F)(F)F)ccc1C(=O)N/N=C/c1ccccc1Cl | 7.68 | 1.71 µM | – |
| O=C(CS(=O)c1nc2ccccc2nc1-c1ccccc1)Nc1ccc(Cl)cc1 (stereo not given) | > 100 | 32.7 µM | – |
